# Reference: patent US20260061016A1, “Extrait aqueux des parties aériennes d'une plante du genre Aster et ses utilisations” (TAUDERMA, priority 2022, published 2026)
# Test system: S. aureus registered under number DSM799
# Test: Minimum inhibitory concentration (MIC), solution culture in 96-well plates followed by drop culture on TSB agar
# Assay type: cell-based, Staphylococcus aureus
# Method: The aim of the test is to compare the efficacy of an extract according to Example 1 or Example 2 and an extract of the Aster genus obtained from the root system (Without the Invention). The aim of the test is to identify the minimum inhibitory concentration (MIC) on a strain of S. aureus registered under number DSM799. The minimum inhibitory concentration (MIC) was determined in vitro using S. aureus solution culture in 96-well plates. The initial concentration of S. aureus was 1.25*10^5 CFU/ml. After 48 h incubation in the presence of a series of dilutions of the extract, a 20 μl drop was taken and placed on a TSB agar plate. The diameter of the “drop culture” is about 1.5 cm. Agar plate cultures were then incubated at 37° C. for 14 hours. The positive control corresponds to the maximum growth of a bacterium, that is, when it is fully confluent, meaning that bacterial colonies stick together and none are visible. Different extracts according to the invention and not according to the invention at different concentrations are thus compared. When no colonies, or separate individual colonies, are visible, then the bacteria have been inhibited by the extract. The extract concentration is then defined as MIC. […] The definition of MIC is as follows: Arbitrary units of bacterial growth were determined on agar culture plates (drop method). […]
smiles,measurement,setting,value
O=C(N[C@H](CO)[C@H](O)c1ccc([N+](=O)[O-])cc1)C(Cl)Cl [Chloramphenicol],MIC,"Staphylococcus aureus, 48 h incubation with extract dilutions, drop on TSB agar, 14 h at 37° C.",50 µg/mL
same,Number of colonies,agar drop culture at the MIC,0
